Experimental data published in ChEMBL document CHEMBL1127167, “Synthesis and in vitro acetylcholinesterase inhibitory activity of some 1-substituted analogues of velnacrine” (Bioorg Med Chem Lett, 1993).

Biological target: T1, Acetylcholinesterase (Rattus norvegicus, UniProt P37136)
T1 sequence (P37136 whole entry): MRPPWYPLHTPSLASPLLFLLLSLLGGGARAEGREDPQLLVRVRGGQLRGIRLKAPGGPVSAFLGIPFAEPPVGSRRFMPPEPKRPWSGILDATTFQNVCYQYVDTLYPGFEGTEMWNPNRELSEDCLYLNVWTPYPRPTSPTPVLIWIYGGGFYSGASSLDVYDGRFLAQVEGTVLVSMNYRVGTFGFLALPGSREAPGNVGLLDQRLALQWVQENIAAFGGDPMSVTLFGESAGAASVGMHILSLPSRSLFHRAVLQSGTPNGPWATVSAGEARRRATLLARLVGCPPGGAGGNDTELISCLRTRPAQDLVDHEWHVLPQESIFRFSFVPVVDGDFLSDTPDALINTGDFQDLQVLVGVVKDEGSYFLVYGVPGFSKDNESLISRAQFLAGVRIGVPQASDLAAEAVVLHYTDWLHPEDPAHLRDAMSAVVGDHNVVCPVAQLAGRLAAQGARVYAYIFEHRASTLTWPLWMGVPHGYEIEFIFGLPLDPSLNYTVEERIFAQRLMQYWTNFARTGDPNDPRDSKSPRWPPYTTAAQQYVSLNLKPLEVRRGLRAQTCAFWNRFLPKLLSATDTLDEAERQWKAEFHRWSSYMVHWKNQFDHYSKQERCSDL
Assay: Inhibition of acetylcholinesterase from rat striatal tissue
Assay type: tissue-based, Striatum

SMILES | IC50
Nc1c2c(nc3ccccc13)CCCC2Nn1cccc1 (stereo unspecified) | 8.16 µM
Nc1c2c(nc3ccccc13)CCCC2c1cccs1 (stereo unspecified) | 0.49 µM
[N-]=[N+]=NC1CCCc2nc3ccccc3c(N)c21 (stereo unspecified) | 11.8 µM
CCNC1CCCc2nc3ccccc3c(N)c21 (stereo unspecified) | 4.79 µM
CCOC1CCCc2nc3ccccc3c(N)c21 (stereo unspecified) | 0.298 µM
Nc1c2c(nc3ccccc13)CCCC2N1CCN(c2ccccc2)CC1 (stereo unspecified) | > 100 µM
Nc1c2c(nc3ccccc13)CCCC2N (stereo unspecified) | 8.59 µM
CCCCOC1CCCc2nc3ccccc3c(N)c21 (stereo unspecified) | 1.9 µM
Nc1c2c(nc3ccccc13)CCCC2N1CCOCC1 (stereo unspecified) | > 100 µM
COc1ccc(CNC2CCCc3nc4ccccc4c(N)c32)cc1OC (stereo unspecified) | 38.4 µM
Nc1c2c(nc3ccccc13)CCCC2N1CCC(c2ccccc2)CC1 (stereo unspecified) | > 100 µM
CCCNC1CCCc2nc3ccccc3c(N)c21 (stereo unspecified) | 12.5 µM
Nc1c2c(nc3ccccc13)CCCC2NCCc1ccccc1 (stereo unspecified) | 18.6 µM
CC(=O)NC1CCCc2nc3ccccc3c(N)c21 (stereo unspecified) | 64.9 µM
CCCCNC1CCCc2nc3ccccc3c(N)c21 (stereo unspecified) | 48.8 µM
Nc1c2c(nc3ccccc13)CCCC2N1CCCC1 (stereo unspecified) | 18 µM
c1ccc(C2=NC3CCCc4nc5ccccc5c(c43)N2)cc1 (stereo unspecified) | > 100 µM
COc1ccc(C2CCCc3nc4ccccc4c(N)c32)c(OC)c1 (stereo unspecified) | 4.82 µM
CC1=NC2CCCc3nc4ccccc4c(c32)N1 (stereo unspecified) | > 100 µM
CN1CCN(C2CCCc3nc4ccccc4c(N)c32)CC1 (stereo unspecified) | > 100 µM
Nc1c2c(nc3ccccc13)CCCC2NCc1ccccc1 (stereo unspecified) | 20.1 µM
CCCOC1CCCc2nc3ccccc3c(N)c21 (stereo unspecified) | 0.193 µM
Nc1c2c(nc3ccccc13)CCCC2N1CCCCC1 (stereo unspecified) | 8.4 µM
CCCCCC(=O)NC1CCCc2nc3ccccc3c(N)c21 (stereo unspecified) | 51.8 µM
COC1CCCc2nc3ccccc3c(N)c21 (stereo unspecified) | 4.74 µM
Nc1c2c(nc3ccccc13)CCCC2O (stereo unspecified) [VELNACRINE] | 3.64 µM
